Data published in publication PMC10879876, “Activatable prodrug for controlled release of an antimicrobial peptide via the proteases overexpressed in Candida albicans and Porphyromonas gingivalis” (Theranostics, 2024).
Where no end group is shown, it is not given here.

Key:
C. albicans [1] = test: Kirby-Bauer disk diffusion, C. albicans; type: cell-based, Candida albicans; conditions: disks treated with 1 mM, five-day incubation at 30 °C
HEK293T [2] = test: Confocal microscopy of membrane integrity, HEK293T; type: cell-based, human; conditions: 100 µM prodrug, 3 hours at 37 °C, CellBrite Fix Membrane Stain 640
Experimental: (§1) standard curve: ∆PLCy5.5 vs. [fully-digested FRET probe]. Data were then fitted to the following Michaelis-Menten equation: ! = !!"#[…]. […]
(§2) amino acid sequences were provided. PEP-FOLD then employs a physics-based energy function […]
(§3) structures for the given peptide sequence. […]
(§4) dynamics sampling approach. […]
(§5) energy and the agreement with experimental or theoretical constraints. The algorithm selects the […]
(§6) allowed to grow overnight. […]
(§7) peptides for 3 hours at 37 °C. Next, cells were washed three times with sterile PBS. Mammalian […]
(§8) PBS (Thermo Scientific) at room temperature for 20 min. Cells were imaged by a confocal […]
(§9) Transmission Electron Microscopy. […]
(§10) by air drying overnight. Cellular morphology was conducted using the same microscope. Here, […]
(§11) nanomedicine lab (UCSD NanoEngineering). Cells were cultured in complete Dulbecco’s […]
(§12) Streptomycin), at 37 °C and 5% CO2. Passages were conducted with 0.25% Trypsin EDTA before […]
(§13) signal that is proportional to H2O2 concentration. Cells were seeded into 96-well plates (Corning, […]

HEK293T [3] = test: XTT viability assay, HEK293T; type: cell-based, human
C. albicans [4] = test: ROS H2O2 luminescence assay, C. albicans; type: cell-based, Candida albicans; conditions: 10 μM, 4 hours, ROS-Glo H2O2 assay, versus cells + PBS
Experimental: (§14) The assay uses an H2O2 substrate that reacts directly with H2O2 to generate a luciferin precursor [55]. It was predicted that exposure of the microorganisms to the prodrug would lead to alterations in their normal physiological processes thus triggering a stress response and inducing the generation of ROS. […] This is consistent with previous studies wherein ROS production is credited as the secondary event of the fungicidal mechanism of P-113 [56]. […]
as §7
(§15) PBS (Thermo Scientific) at room temperature for 20 min. […]
(§16) Cells were cultured in complete Dulbecco’s
as §12, §13
(§17) then incubated for 4 hours at 37 °C before 100µl of ROS-Glo™ Detection Solution was added to each well. Finally, the plate was incubated for 20 minutes at room temperature and the relative luminescence was recorded using a plate reader (Synergy H1, BioTek). […]
(§18) LoB = meanblank + 1.645 (SDblank) […]
(§19) LoD = LoB + 1.645 (SDlow concentration sample).
(§20) Statistical Analysis. Statistical analysis was conducted using GraphPad Prism 10. […]
(§21) A P-value of < 0.05 was […]
(§22) considered significant. […]

C. albicans [5] = test system: C. albicans; set-up: method as in PMID 27458227; conditions: previous work; cited from earlier work
P. gingivalis [6] = test: ROS H2O2 luminescence assay, P. gingivalis; type: cell-based, Porphyromonas gingivalis; conditions: 10 μM, 4 hours, ROS-Glo H2O2 assay, versus cells + PBS
Experimental: as §14, §7, §15, §16, §12, §13, §17, §18, §19, §20, §21, §22

RgpB = target: T1, RgpB (Porphyromonas gingivalis, UniProt P95493); test: Enzyme digestion by recombinant RgpB (MALDI-TOF / ESI-MS); type: biochemical; conditions: 37 °C
T1 construct: gift from Professor Anthony O'Donoghue (UC San Diego)
Experimental: (§23) Probe activation, kinetics, and cytotoxicity.
(§24) Enzyme digestion. SAP9 and RgpB cleavage were both performed with 455 µM of peptide. […] Then, 10 µL of the enzyme at the appropriate concentration was added. An optimized final concentration of 300 nM for SAP9 and 200 nM for RgpB were used. The solution was incubated at 37 °C for 3 hours for RgpB and SAP9 for optimal cleavage.

P. gingivalis [7] = test: Kirby-Bauer disk diffusion, P. gingivalis; type: cell-based, Porphyromonas gingivalis; conditions: disks treated with 1 mM, five-day incubation at 37 °C
SAP9 = target: T2, SAP9 (Candida albicans, UniProt Q59SU1); test: Enzyme digestion by recombinant SAP9 (MALDI-TOF / ESI-MS); type: biochemical; conditions: 37 °C; for Cleavage / degradation by SAP9: 300 nM recombinant SAP9, 3 h, 9.5 mM MES, 2.7 mM KCl, 140 mM NaCl pH 5.5, 455 µM peptide, MALDI-TOF (ESI-MS for P-113)
T2 construct: purchased MyBioSource (San Diego, CA)
Experimental: as §23, §24

C. albicans [8] = test: TEM of cell morphology, C. albicans; type: cell-based, Candida albicans; conditions: 3 hours at 37 °C; S1 at 40 µM
Source text: (§25) Finally, the target microorganisms were also imaged using transmission electron microscopy (TEM) to visualize the cell morphology. Figure 3C presents C. albicans cells. On the left, the untreated cells show a rigid and intact membrane in contrast to the […] (+ S1) showing decreased cell density and clear destruction of the membranes. This obvious change in morphology is seen at other magnifications (Supplementary Figure S19). […]
as §1, §2, §3, §4, §5, §6, §7, §8, §9, §10, §11, §12

P. gingivalis [9] = test: TEM of cell morphology, P. gingivalis; type: cell-based, Porphyromonas gingivalis; conditions: 3 hours at 37 °C; G1 at 40 µM
Source text: as §25, §1, §2, §3, §4, §5, §6, §7, §8, §9, §10, §11, §12

P. gingivalis [10] = test: XTT viability assay, P. gingivalis; type: cell-based, Porphyromonas gingivalis; conditions: 10 µM
F. nucleatum = test: XTT viability assay, F. nucleatum; type: cell-based, Fusobacterium nucleatum; conditions: intact peptide
C. albicans [11] = test: XTT viability assay, C. albicans; type: cell-based, Candida albicans; conditions: intact peptide, 10 µM, 3 h at 37 °C, absorbance 490 nm, sextuplet measurements
Experimental: Fungal culture. In situ culturing C. albicans (ATCC 90028) from lyophilized stock (KWIK-STIK, VWR) was conducted on Sabouraud dextrose agar plates (Sigma-Aldrich) 2 to 5 days in advance of the antifungal assay. The plates were then incubated at 30°C and pearl-like colonies were observed, indicative of C. albicans. Single colonies were then extracted with sterilized inoculation loops and inoculated in 3 mL yeast extract peptone dextrose (YEPD) medium (2% Bacto^TMpeptone, 2% Dextrose, 1% Yeast extract in H2O) using Biological Safety Level 2 (BSL-2) practices and procedures. Note, the broth was autoclaved before use and stored at room temperature. […] The culture was finally diluted 1:100 and the OD600 was measured wherein OD600 = 0.5 a.u. correlates to approximately 1 × 10^6 cells/ mL in 100 µL RPMI-1640 medium with L-glutamine and 3-(N-morpholino)propane sulfonic acid (MOPS) without sodium bicarbonate, pH 7.0. […]
Viability assay. The percent toxicity was calculated using an XTT (2,3-bis-(2-methoxy-4-nitro-5-sulfophenyl)-2H-tetrazolium-5-carboxanilide) colorimetric assay (Biotium) wherein viable cells form an orange formazan product upon reduction. […] The absorbance of the formazan dye was measured at a wavelength of 490 nm using a microplate reader. Here, the absorbance is directly proportional to the number of viable cells present in each well. […]

T2 sequence (Q59SU1 18-544): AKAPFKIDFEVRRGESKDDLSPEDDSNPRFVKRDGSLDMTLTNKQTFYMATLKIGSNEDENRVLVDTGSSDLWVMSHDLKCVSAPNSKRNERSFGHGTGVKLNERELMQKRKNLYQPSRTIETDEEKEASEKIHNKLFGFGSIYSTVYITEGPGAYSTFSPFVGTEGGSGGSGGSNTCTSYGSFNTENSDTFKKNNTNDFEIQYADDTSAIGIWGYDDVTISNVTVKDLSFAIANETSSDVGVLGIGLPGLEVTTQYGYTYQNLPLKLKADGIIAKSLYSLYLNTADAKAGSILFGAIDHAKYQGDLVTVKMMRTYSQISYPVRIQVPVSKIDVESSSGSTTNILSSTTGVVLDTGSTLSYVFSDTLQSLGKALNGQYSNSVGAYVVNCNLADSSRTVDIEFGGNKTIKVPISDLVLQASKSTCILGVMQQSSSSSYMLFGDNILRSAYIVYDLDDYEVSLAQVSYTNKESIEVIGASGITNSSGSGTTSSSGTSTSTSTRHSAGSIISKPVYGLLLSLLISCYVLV
T1 sequence (P95493 230-736): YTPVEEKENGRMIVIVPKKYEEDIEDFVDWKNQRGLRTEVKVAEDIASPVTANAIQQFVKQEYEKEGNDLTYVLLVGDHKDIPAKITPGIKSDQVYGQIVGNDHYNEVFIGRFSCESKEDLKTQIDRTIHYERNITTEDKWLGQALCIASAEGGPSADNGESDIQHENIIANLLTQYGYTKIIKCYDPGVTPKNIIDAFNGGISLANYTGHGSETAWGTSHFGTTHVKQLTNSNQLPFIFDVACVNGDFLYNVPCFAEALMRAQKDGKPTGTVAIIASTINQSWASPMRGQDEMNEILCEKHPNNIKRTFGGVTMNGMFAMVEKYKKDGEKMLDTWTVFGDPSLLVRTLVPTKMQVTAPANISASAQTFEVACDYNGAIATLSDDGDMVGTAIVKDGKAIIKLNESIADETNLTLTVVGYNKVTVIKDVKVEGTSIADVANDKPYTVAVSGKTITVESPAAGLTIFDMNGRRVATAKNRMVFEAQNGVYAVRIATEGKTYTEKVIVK

OC(Cn1cncn1)(Cn1cncn1)c1ccc(F)cc1F [FLZ, fluconazole, reference compound]
Growth inhibition in disk diffusion test (C. albicans [1]): Obvious growth inhibition

AKRHHGYKRKFHGGAGPRIDGGDDDDDD-NH2 [G1]
Membrane integrity by confocal microscopy (HEK293T [2]): membrane remained intact
Toxicity to HEK293T compared to P-113 (HEK293T [3]; intact prodrug, 10 µM, XTT): decreased toxicity by nearly half

Ac-AKRHHGYKRKFH-NH2 [P-113, reference compound]
H2O2 ROS generation, relative luminescence (C. albicans [4]): six-fold increase
MIC (C. albicans [5]): 10 µM
H2O2 ROS generation, relative luminescence (P. gingivalis [6]): six-fold increase
Growth inhibition in disk diffusion test (C. albicans [1]): Obvious growth inhibition
MIC for HEK293T relative to MIC for the oral microorganisms (HEK293T [3]): ~100 times
Cleavage / degradation by RgpB (RgpB; 200 nM recombinant RgpB, 3 h, 0.2 M Tris HCl pH 7.6, 5 mM CaCl2, 100 mM NaCl, 40 mM TCEP, 455 µM peptide, MALDI-TOF (ESI-MS for P-113)): no degradation
Growth inhibition in disk diffusion test (P. gingivalis [7]): Colony growth is inhibited
Cleavage / degradation by SAP9 (SAP9): no degradation

Ac-AKRHHGYKRKFHGGVKKKDVVDGGDDDDDD-NH2 [S1]
Cell morphology by TEM (C. albicans [8]): decreased cell density and cell rupturing
H2O2 ROS generation, relative luminescence (C. albicans [4]): six-fold increase
Cell morphology by TEM (P. gingivalis [9]): intact cell structures
H2O2 ROS generation, relative luminescence (P. gingivalis [6]): little luminescence
Change of percent toxicity upon cleavage (P. gingivalis [10]; S1 pre-cleaved in vitro by 300 nM recombinant SAP9 versus intact (30%)): nearly doubled
Percent toxicity (P. gingivalis [10]; intact peptide, 3 h at 37 °C, absorbance 490 nm, sextuplet measurements): 30%
Inhibited growth relative to the positive control treatment (FLZ) (C. albicans [1]; disk diffusion, diameter relative to fluconazole): approximately 70%
Growth inhibition in disk diffusion test (C. albicans [1]): Obvious growth inhibition
Percent toxicity (F. nucleatum; 10 µM, 3 h at 37 °C): 15%
Percent toxicity, highest over the titration (F. nucleatum; all tested concentrations): ≤ 50%
Percent toxicity (C. albicans [11]): 70%
Cleavage by RgpB, S1 and G1 co-incubated (RgpB; joint solution of S1 and G1, RgpB 300nM, 3 hours, MALDI-TOF): S1 remaining intact
Growth inhibition in disk diffusion test (P. gingivalis [7]): No growth inhibition
Cleavage / degradation by SAP9 (SAP9): obvious mass peaks corresponding to the cleaved fragments
Cleavage by SAP9, S1 and G1 co-incubated (SAP9; joint solution of S1 and G1, SAP9 300 nM, 3 hours, MALDI-TOF): S1 converting to S1 fragment
